According to patent US9586950B2 (MERCK SHARP & DOHME CORP., priority 2012, dated 2017):

What was measured:
[1] = target: T1, hOX1R (orexin-1 receptor) (Rattus norvegicus, UniProt P56718); assay: FLIPR Ca2+ Flux Assay, hOX1R FLIPR; format: cell-based; conditions: CHO cells, 70 pM Ala-6,12 human orexin-A agonist
Description: (§1) In a typical experiment the OX1 and OX2 receptor antagonistic activity of the compounds of the present invention was determined in accordance with the following experimental method. For intracellular calcium measurements, Chinese hamster ovary (CHO) cells expressing the rat orexin-1 receptor or the human orexin-2 receptor, are grown in Iscove's modified DMEM containing 2 mM L-glutamine, […], 1% hypoxanthine-thymidine supplement, 100 U/ml penicillin, 100 μg/ml streptomycin and 10% heat-inactivated fetal calf serum (FCS). The cells are seeded at 20,000 cells/well into Becton-Dickinson black 384-well clear bottom sterile plates coated with poly-D-lysine. All reagents were from GIBCO-Invitrogen Corp. The seeded plates are incubated overnight at 37° C. and 5% CO2. Ala-6,12 human orexin-A as the agonist is prepared as a 1 mM stock solution in 1% bovine serum albumin (BSA) and diluted in assay buffer (HBSS containing 20 mM HEPES, 0.1% BSA and 2.5 mM probenecid, pH7.4) for use in the assay at a final concentration of 70 pM. Test compounds are prepared as 10 mM stock solution in DMSO, then diluted in 384-well plates, first in DMSO, then assay buffer. On the day of the assay, cells are washed 3 times with 100 μl assay buffer and then incubated for 60 min (37° C., 5% CO2) in 60 μl assay buffer containing 1 μM Fluo-4AM ester, 0.02% pluronic acid, and 1% BSA. The dye loading solution is then aspirated and cells are washed 3 times with 100 μl assay buffer. 30 μl of that same buffer is left in each well. Within the Fluorescent Imaging Plate Reader (FLIPR, Molecular Devices), test compounds are added to the plate in a volume of 25 μl, incubated for 5 min and finally 25 μl of agonist is added. Fluorescence is measured for each well at 1 second intervals for 5 minutes and the height of each fluorescence peak is compared to the height of the fluorescence peak induced by 70 pM Ala-6,12 orexin-A with buffer in place of antagonist. […] Alternatively, compound potency can be assessed by a radioligand binding assay (described in Bergman et. al. Bioorg. Med. Chem. Lett. 2008, 18, 1425-1430) in which the inhibition constant (Ki) is determined in membranes prepared from CHO cells expressing either the OX1 or OX2 receptor. The intrinsic orexin receptor antagonist activity of a compound which may be used in the present invention may be determined by these assays.

human orexin-2 receptor [2] = target: T2, human orexin-2 receptor (Homo sapiens (Human), UniProt O43614); assay: radioligand binding assay, hOX2R BIND; conditions: membranes from CHO cells expressing OX2 receptor; read-out: hOX2R BIND hKi
T2 sequence (O43614 whole entry): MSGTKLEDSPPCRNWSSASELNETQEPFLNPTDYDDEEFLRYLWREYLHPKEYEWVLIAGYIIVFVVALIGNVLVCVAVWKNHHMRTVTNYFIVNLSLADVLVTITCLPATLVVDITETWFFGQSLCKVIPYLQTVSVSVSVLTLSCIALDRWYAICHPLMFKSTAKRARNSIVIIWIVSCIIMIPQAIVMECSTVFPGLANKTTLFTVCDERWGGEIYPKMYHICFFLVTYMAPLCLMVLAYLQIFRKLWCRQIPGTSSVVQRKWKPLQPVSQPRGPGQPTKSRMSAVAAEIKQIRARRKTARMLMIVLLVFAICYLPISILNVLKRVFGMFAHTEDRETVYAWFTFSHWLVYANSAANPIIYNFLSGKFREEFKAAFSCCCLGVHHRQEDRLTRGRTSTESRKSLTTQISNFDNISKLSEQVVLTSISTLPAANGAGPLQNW
Description: as §1

human orexin-2 receptor [3] = target: T2, human orexin-2 receptor; assay: FLIPR Ca2+ Flux Assay, hOX2R FLIPR; format: cell-based; conditions: CHO cells, 70 pM Ala-6,12 human orexin-A agonist
Description: as §1

[4] = target: T1, hOX1R (orexin-1 receptor); assay: radioligand binding assay, hOX1R BIND; conditions: membranes from CHO cells expressing OX1 receptor; read-out: hOX1R BIND hKi
Description: In a typical experiment the OX1 and OX2 receptor antagonistic activity of the compounds of the present invention was determined in accordance with the following experimental method. For intracellular calcium measurements, Chinese hamster ovary (CHO) cells expressing the rat orexin-1 receptor or the human orexin-2 receptor, are grown in Iscove's modified DMEM containing 2 mM L-glutamine, […], 1% hypoxanthine-thymidine supplement, 100 U/ml penicillin, 100 μg/ml streptomycin and 10% heat-inactivated fetal calf serum (FCS). The cells are seeded at 20,000 cells/well into Becton-Dickinson black 384-well clear bottom sterile plates coated with poly-D-lysine. […] Within the Fluorescent Imaging Plate Reader (FLIPR, Molecular Devices), test compounds are added to the plate in a volume of 25 μl, incubated for 5 min and finally 25 μl of agonist is added. Fluorescence is measured for each well at 1 second intervals for 5 minutes and the height of each fluorescence peak is compared to the height of the fluorescence peak induced by 70 pM Ala-6,12 orexin-A with buffer in place of antagonist. […] Alternatively, compound potency can be assessed by a radioligand binding assay (described in Bergman et. al. Bioorg. Med. Chem. Lett. 2008, 18, 1425-1430) in which the inhibition constant (Ki) is determined in membranes prepared from CHO cells expressing either the OX1 or OX2 receptor. […]

T1 sequence (P56718 whole entry, looked up): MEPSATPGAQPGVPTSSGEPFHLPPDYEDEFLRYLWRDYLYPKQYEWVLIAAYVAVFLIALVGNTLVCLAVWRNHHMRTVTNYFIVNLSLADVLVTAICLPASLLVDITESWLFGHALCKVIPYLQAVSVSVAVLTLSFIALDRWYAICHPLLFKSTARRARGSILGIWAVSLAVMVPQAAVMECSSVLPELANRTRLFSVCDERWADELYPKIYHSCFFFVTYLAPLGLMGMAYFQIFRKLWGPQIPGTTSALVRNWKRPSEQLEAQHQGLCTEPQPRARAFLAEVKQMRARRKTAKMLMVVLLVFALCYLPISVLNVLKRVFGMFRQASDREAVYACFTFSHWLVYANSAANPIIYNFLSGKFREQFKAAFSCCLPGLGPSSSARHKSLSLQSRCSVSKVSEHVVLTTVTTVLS

Structure (SMILES)	IC50 [1] [µM]	Ki (human orexin-2 receptor [2]) [µM]	IC50 (human orexin-2 receptor [3]) [µM]	Ki [4] [µM]
COC(=O)c1c(C#N)ccnc1O[C@@H]1CC[C@@H](C)N(C(=O)c2c(F)cccc2-n2nccn2)C1 [Example 7, methyl 4-cyano-2-{[(3R,6R)-1-{[2-fluoro-6-(2H-1,2,3-triazol-2-yl)phenyl]carbonyl}-6-methylpiperidin-3-yl]oxy}pyridine-3-carboxylate]	0.432	0.00033	0.024	–
COC(=O)c1c(C#N)ccnc1O[C@@H]1CC[C@@H](C)N(C(=O)c2ccc(F)cc2-c2ncccn2)C1 [Example 22, methyl 4-cyano-2-({(3R,6R)-1-[(4-fluoro-2-pyrimidin-2-ylphenyl)carbonyl]-6-methylpiperidin-3-yl}oxy)pyridine-3-carboxylate]	0.711	0.00068	0.0336	–
COC(=O)c1c(C#N)ccnc1O[C@@H]1CC[C@@H](C)N(C(=O)c2cc(F)ccc2-n2nccn2)C1 [Example 6, methyl 4-cyano-2-{[(3R,6R)-1-{[5-fluoro-2-(2H-1,2,3-triazol-2-yl)phenyl]carbonyl}-6-methylpiperidin-3-yl]oxy}pyridine-3-carboxylate]	0.971	0.00042	0.0182	–
COC(=O)c1c(C#N)ccnc1O[C@@H]1CC[C@@H](C)N(C(=O)c2ccc(F)cc2-c2nc(C)no2)C1 [Example 15, methyl 4-cyano-2-{[(3R,6R)-1-{[4-fluoro-2-(3-methyl-1,2,4-oxadiazol-5-yl)phenyl]carbonyl}-6-methylpiperidin-3-yl]oxy}pyridine-3-carboxylate]	3.08	0.0022	0.0318	–
COC(=O)c1c(C#N)ccnc1O[C@@H]1CC[C@@H](C)N(C(=O)c2ccccc2-c2noc(C)n2)C1 [Example 10, methyl 4-cyano-2-{[(3R,6R)-6-methyl-1-{[2-(5-methyl-1,2,4-oxadiazol-3-yl)phenyl]carbonyl}piperidin-3-yl]oxy}pyridine-3-carboxylate]	0.698	0.00053	0.0065	–
COC(=O)c1c(C#N)ccnc1O[C@@H]1CCC(C)N(C(=O)c2ccccc2-c2ncccn2)C1 (stereo partly shown) [Example 20]	0.417	0.00054	0.0238	0.0308
COC(=O)c1c(C#N)ccnc1O[C@@H]1CC[C@@H](C)N(C(=O)c2ccc(F)cc2-n2nccn2)C1 [Example 5, methyl 4-cyano-2-{[(3R,6R)-1-{[4-fluoro-2-(2H-1,2,3-triazol-2-yl)phenyl]carbonyl}-6-methylpiperidin-3-yl]oxy}pyridine-3-carboxylate]	1.01	0.00066	0.0218	–
